Assay [1] concerns the target T1, MAP/microtubule affinity-regulating kinase 4 (Homo sapiens) (UniProt Q96L34).
T1 sequence (whole entry): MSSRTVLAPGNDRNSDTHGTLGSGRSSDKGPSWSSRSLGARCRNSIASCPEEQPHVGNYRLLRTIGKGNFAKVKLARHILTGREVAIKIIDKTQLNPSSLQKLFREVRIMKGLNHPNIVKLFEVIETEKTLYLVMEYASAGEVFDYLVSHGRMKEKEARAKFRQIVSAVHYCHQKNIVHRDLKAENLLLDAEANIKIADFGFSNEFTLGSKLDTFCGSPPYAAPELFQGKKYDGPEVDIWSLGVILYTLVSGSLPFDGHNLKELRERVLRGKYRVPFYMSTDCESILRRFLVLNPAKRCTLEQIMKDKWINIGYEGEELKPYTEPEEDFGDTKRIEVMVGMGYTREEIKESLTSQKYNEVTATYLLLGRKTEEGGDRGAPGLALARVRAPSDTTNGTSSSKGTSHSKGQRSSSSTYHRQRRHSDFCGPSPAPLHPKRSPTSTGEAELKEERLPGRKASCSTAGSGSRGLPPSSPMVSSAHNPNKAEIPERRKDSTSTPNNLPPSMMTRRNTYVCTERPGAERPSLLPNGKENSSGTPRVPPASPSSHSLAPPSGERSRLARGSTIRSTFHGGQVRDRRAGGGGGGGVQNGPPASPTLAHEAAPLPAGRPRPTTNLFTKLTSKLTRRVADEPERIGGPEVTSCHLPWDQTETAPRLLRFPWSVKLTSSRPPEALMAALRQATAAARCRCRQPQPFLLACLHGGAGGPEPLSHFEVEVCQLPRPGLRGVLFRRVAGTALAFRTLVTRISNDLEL
Nature of the assay: Selectivity interaction (KinomeScan (DiscoverX)) EUB0000092b MARK4. The note with it: at 10 µM.

Assay [2] concerns the target BDNF/NT-3 growth factors receptor (Homo sapiens) (UniProt Q16620). Nature of the assay: Selectivity interaction (KinomeScan (DiscoverX)) EUB0000045b NTRK2.
Assay [3] concerns the target Phosphatidylinositol 4-phosphate 3-kinase C2 domain-containing subunit alpha (Homo sapiens) (UniProt O00443). Nature of the assay: Selectivity interaction (Adapta Assay) EUB0001632a PIK3C2A. The note with it: at 10 µM.
In assay [4] the target is T2, Serine/threonine-protein kinase DCLK1 (Homo sapiens) (UniProt O15075).
T2 sequence (whole entry): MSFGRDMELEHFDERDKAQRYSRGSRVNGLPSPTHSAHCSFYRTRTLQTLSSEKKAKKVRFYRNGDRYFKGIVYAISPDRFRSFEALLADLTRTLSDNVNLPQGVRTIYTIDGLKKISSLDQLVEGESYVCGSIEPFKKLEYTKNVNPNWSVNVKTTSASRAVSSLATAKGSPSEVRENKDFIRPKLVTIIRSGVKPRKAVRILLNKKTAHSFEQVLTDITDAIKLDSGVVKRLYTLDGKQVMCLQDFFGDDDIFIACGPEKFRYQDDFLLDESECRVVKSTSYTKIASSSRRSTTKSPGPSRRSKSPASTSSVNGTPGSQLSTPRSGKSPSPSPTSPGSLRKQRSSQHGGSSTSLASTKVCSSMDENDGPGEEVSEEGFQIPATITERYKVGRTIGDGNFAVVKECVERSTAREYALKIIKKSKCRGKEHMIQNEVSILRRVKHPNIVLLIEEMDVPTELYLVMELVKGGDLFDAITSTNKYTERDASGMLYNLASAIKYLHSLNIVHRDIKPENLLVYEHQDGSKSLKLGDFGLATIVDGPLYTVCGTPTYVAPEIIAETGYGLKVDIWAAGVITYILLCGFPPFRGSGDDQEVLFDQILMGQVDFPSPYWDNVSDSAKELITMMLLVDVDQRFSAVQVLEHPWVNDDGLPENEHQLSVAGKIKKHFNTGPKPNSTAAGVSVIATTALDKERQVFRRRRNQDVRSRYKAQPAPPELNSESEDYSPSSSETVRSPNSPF
Nature of the assay: Selectivity interaction (KinomeScan (DiscoverX)) EUB0000607a DCLK1. The note with it: at 10 µM.

Assay [5] addresses Serine/threonine-protein kinase 25 (Homo sapiens) (UniProt O00506). Nature of the assay: Selectivity interaction (KinomeScan (DiscoverX)) EUB0000607a STK25. The note with it: at 10 µM.
Assay [6] has as its target Tyrosine-protein kinase JAK1 (Homo sapiens, UniProt P23458). Nature of the assay: Selectivity interaction (ActivX KiNativ screen (ex vivo kinase selectivity in human PBMCs)) EUB0001619a JAK1. As to conditions: PBMC, at 1 µM. It is filed as cell-based.
The target of assay [7] is T3, Interleukin-1 receptor-associated kinase 4 (Homo sapiens) (UniProt Q9NWZ3).
T3 sequence (whole entry): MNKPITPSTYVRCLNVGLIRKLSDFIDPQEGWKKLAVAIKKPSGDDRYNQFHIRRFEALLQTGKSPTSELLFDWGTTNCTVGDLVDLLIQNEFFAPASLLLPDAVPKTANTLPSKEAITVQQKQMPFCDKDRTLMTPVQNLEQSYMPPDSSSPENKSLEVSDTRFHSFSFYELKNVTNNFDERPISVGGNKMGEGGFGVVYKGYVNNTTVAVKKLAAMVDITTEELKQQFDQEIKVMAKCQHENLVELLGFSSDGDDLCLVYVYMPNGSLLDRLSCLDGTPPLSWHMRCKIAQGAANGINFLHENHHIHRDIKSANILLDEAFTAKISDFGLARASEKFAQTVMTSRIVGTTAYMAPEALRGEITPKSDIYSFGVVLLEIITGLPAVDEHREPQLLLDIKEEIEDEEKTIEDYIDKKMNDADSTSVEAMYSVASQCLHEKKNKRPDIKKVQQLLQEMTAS
Nature of the assay: Selectivity interaction (ActivX KiNativ screen (ex vivo kinase selectivity in human PBMCs)) EUB0001619a IRAK4. It counts as cell-based. As to conditions: PBMC, at 1 µM.

Sequence of BDNF/NT-3 growth factors receptor (Homo sapiens) (Q16620 32-822 limits assumed): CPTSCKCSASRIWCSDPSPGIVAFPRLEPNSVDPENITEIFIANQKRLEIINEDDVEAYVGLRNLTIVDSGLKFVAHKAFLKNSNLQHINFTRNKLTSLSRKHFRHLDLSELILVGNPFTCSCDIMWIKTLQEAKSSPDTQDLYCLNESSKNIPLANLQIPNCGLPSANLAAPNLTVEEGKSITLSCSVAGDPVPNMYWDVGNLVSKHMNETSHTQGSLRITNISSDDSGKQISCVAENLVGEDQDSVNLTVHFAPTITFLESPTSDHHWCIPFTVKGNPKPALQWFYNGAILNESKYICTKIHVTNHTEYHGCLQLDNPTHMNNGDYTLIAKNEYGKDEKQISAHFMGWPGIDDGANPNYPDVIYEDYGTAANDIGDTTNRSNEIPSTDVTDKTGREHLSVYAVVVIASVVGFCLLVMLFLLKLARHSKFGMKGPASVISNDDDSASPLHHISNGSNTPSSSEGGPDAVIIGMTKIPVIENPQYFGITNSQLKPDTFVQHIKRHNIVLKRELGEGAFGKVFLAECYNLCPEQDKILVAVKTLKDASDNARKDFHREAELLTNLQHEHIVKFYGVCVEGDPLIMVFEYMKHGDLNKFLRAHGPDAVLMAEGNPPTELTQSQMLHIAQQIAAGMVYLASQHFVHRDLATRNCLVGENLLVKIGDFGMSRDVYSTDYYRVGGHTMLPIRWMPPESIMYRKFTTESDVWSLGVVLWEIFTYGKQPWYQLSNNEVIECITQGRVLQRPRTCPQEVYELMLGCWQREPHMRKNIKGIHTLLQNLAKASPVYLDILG
Sequence of Tyrosine-protein kinase JAK1 (P23458 whole entry): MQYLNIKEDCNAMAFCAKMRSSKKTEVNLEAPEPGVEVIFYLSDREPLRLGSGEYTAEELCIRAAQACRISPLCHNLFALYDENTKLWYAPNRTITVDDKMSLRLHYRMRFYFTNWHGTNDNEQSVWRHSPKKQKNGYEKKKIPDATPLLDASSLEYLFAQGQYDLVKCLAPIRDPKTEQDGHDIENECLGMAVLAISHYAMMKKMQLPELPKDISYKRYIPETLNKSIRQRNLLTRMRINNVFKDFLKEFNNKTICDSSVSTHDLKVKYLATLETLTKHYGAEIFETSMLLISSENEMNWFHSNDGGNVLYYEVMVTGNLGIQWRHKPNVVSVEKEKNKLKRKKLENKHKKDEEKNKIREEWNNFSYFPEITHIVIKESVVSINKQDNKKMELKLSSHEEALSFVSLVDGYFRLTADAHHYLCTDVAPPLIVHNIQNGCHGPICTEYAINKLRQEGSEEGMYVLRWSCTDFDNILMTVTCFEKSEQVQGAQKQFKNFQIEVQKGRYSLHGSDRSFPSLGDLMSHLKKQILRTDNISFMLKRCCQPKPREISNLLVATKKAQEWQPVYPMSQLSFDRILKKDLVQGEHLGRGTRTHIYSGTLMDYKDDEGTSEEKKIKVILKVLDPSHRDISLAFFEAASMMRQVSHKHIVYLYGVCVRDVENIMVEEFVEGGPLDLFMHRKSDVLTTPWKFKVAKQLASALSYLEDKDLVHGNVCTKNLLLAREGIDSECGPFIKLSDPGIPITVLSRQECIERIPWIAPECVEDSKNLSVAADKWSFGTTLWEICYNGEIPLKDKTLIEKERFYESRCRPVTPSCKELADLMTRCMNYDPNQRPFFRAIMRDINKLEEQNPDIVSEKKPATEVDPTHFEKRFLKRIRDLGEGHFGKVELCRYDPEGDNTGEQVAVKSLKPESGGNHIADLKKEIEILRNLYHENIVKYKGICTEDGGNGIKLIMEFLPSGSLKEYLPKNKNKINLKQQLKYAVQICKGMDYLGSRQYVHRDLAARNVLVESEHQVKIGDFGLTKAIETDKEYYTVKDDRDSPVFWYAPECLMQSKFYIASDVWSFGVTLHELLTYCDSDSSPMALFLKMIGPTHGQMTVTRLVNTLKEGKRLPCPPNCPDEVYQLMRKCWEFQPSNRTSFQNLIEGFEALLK
Sequence of Serine/threonine-protein kinase 25 (Homo sapiens) (O00506 whole entry, looked up): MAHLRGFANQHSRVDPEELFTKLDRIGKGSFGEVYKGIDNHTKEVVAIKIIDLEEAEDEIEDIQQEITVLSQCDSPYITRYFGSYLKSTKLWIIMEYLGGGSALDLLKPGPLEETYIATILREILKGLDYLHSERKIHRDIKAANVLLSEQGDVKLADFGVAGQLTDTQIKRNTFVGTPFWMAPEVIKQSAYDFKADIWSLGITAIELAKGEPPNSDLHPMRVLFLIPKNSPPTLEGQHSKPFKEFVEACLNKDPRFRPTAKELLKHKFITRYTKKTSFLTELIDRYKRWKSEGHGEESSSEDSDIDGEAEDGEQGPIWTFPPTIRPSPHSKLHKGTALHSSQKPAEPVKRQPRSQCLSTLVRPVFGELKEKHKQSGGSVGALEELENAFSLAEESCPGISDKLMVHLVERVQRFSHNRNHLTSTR
Sequence of Phosphatidylinositol 4-phosphate 3-kinase C2 domain-containing subunit alpha (Homo sapiens) (O00443 whole entry, the tested form may be a part): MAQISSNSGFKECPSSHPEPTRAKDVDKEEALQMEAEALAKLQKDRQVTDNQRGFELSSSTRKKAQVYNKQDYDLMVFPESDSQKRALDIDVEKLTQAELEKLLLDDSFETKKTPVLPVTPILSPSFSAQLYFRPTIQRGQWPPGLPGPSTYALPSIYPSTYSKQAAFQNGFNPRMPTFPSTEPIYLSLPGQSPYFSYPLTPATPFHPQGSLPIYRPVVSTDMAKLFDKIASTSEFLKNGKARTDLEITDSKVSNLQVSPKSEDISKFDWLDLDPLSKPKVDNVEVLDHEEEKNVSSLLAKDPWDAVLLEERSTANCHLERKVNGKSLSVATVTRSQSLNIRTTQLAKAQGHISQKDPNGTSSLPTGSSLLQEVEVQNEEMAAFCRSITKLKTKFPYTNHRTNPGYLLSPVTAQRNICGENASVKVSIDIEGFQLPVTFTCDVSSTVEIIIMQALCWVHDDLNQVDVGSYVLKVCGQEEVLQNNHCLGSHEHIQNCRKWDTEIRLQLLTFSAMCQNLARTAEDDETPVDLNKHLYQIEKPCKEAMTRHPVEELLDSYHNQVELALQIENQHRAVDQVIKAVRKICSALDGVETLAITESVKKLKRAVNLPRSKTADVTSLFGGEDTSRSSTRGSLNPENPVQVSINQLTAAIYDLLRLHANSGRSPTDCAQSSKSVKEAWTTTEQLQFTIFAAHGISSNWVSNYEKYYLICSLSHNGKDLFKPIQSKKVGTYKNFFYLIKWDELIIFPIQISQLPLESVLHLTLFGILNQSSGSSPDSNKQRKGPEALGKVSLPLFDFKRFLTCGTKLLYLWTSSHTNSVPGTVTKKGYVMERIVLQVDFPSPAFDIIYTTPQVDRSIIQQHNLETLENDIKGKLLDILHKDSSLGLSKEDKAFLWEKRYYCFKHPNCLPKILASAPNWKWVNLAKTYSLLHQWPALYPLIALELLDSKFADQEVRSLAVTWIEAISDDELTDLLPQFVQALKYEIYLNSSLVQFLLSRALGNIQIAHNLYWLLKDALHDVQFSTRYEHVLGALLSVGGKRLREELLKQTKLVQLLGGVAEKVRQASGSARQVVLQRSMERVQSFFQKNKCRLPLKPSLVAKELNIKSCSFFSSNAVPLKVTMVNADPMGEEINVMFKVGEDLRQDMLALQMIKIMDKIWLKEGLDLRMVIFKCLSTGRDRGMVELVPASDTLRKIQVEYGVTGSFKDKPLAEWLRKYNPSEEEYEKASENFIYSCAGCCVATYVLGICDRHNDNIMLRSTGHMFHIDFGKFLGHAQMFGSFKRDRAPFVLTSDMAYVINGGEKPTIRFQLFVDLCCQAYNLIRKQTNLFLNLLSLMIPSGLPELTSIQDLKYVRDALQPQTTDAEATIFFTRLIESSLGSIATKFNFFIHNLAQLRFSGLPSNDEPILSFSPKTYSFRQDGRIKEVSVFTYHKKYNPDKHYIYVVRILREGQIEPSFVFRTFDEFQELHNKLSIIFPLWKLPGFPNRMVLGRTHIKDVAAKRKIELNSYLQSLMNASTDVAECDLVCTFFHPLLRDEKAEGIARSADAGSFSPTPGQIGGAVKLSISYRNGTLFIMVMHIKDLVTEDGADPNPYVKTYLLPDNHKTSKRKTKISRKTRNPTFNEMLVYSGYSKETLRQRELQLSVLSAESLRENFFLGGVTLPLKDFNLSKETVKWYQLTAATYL

Regarding `CCC(=O)N1CCN(c2ccc(-n3c(=O)ccc4cnc5ccc(-c6cnc7ccccc7c6)cc5c43)cc2C(F)(F)F)CC1`, in assay [1], the % of control came out at 100%.

`C=CC(=O)Nc1cc(-n2c(=O)ccc3cnc4ccc(-c5ccc(NS(C)(=O)=O)cc5)cc4c32)ccc1C`: the % of control amounted to 62% in assay [2] (at 1 µM) and 78% in assay [2] (at 10 µM).

On to `Cn1cc(-n2cnc3c(NCc4nc5cc(Cl)c(Cl)cc5[nH]4)nc(N4CCOCC4)nc32)cn1`, for which, in assay [3], the % of inhibition came out at 5.89%.

In the case of `CNC(=O)Nc1ccc(-c2nc(N3CC4CCC(C3)O4)c3cnn(C4CCC5(CC4)OCCO5)c3n2)cc1`, the % of control came to 100% in assay [4] and 91% in assay [5].

For `N#Cc1cccc(-c2c[nH]c3ncnc(N4CCOCC4)c23)c1`, the results for the % of inhibition in assay [6] and in assay [7] were -4% and 16%, respectively.

(Values after ChEMBL document CHEMBL5465560, “Selectivity Literature for EUbOPEN Chemogenomic Library” (2024).)
